Read-outs that look alike come from different tables or passages of the source. Each block holds one compound with its values, some of them ahead of it.
Tests used:
[1] = Mutarotation: angle of rotation over time after dissolving allulose in water (polarimeter); type: physicochemical; conditions: 23° C.; for angle of rotation: desalted water, DS about 26 wt.-%
Experimental: Crystalline allulose was dissolved in water (DS 26 wt.-%). Quickly afterwards, the sample was placed in a polarimeter and the angle of rotation was read off at regular intervals ([…], 23° C.). From this, the angle of rotation was then plotted over time (see FIG. 1). 74.30 g of water and 26.05 g of crystalline allulose were mixed. The mixture was briefly stirred with a stir bar until the allulose was completely dissolved. Then a sample was placed in the polarimeter and the angle of rotation of the same sample was measured at regular intervals. There were approximately 5 minutes between the addition of the allulose and the first measured value (0 min).
Mutarotation of solid allulose obtained in accordance with the present invention was compared to mutarotation of highly crystalline allulose. For this purpose, solutions at a dry substance content of about DS 26 wt.-% were prepared from powdery compositions each having a particle size within the range of from 100 to 200 μm (sieve fraction).
15.61 g of powdery crystalline allulose (comparative) of grain size 100-200 μm were dissolved at 23° C. in 47.6 g desalted water in a 500 mL beaker. The angle of rotation was measured over time with a polarimeter.
13.00 g of extruded allulose (inventive) of grain size 100-200 μm were dissolved at 23° C. in 37.07 g desalted water in a 500 mL beaker. The angle of rotation was measured over time with a polarimeter.
For the sake of better comparability, the specific angle of rotation [(° *ml)/(dm*g)] was calculated for each measured value. The results are visualized in FIG. 2.

[2] = cited from earlier work
[3] = cited from earlier work; remark: listed apart in the source
[4] = Preliminary tests to estimate supersaturation and undercooling of carbohydrates in water; type: physicochemical
Excerpt: Therefore, preliminary tests were made in order to estimate supersaturation and overcooling of various carbohydrates in water under different conditions.

[5] = cited from earlier work; remark: listed apart in the source
[6] = mass fraction 70% prior to evaporation, temperature 150° C.
[7] = mass fraction 80% prior to evaporation, temperature 190° C.
[8] = in water, 13C NMR (du Penhoat et al.)
[9] = mass fraction 90%, temperature 58° C.
[10] = mass fraction 80%, temperature 149° C.

Structure (SMILES): O=C(CO)C(O)C(O)C(O)CO (stereo not drawn) [comparative, allulose]
angle of rotation ([1]; time 0 min): −33.4 °
angle of rotation ([1]; time 0.5 min): −31.1 °
angle of rotation ([1]; time 1 min): −29 °
angle of rotation ([1]; time 1.5 min): −27 °
angle of rotation ([1]; time 2 min): −25.1 °
angle of rotation ([1]; time 2.5 min): −23.35 °
angle of rotation ([1]; time 3 min): −21.7 °
angle of rotation ([1]; time 3.5 min): −20.13 °
angle of rotation ([1]; time 4 min): −18.71 °
angle of rotation ([1]; time 4.5 min): −17.36 °
angle of rotation ([1]; time 5 min): −16.1 °
angle of rotation ([1]; time 5.5 min): −14.91 °
angle of rotation ([1]; time 6 min): −13.8 °
angle of rotation ([1]; time 6.5 min): −12.78 °
angle of rotation ([1]; time 7 min): −11.81 °
angle of rotation ([1]; time 7.5 min): −10.9 °
angle of rotation ([1]; time 8 min): −10.05 °
angle of rotation ([1]; time 8.5 min): −9.25 °
angle of rotation ([1]; time 9 min): −8.51 °
angle of rotation ([1]; time 9.5 min): −7.81 °
angle of rotation ([1]; time 10 min): −7.18 °
angle of rotation ([1]; time 10.5 min): −6.57 °
angle of rotation ([1]; time 11 min): −6 °
angle of rotation ([1]; time 11.5 min): −5.47 °
angle of rotation ([1]; time 12 min): −4.98 °
angle of rotation ([1]; time 12.5 min): −4.51 °
angle of rotation ([1]; time 13 min): −4.08 °
angle of rotation ([1]; time 13.5 min): −3.67 °
angle of rotation ([1]; time 14 min): −3.29 °
angle of rotation ([1]; time 14.5 min): −2.93 °
angle of rotation ([1]; time 15 min): −2.6 °
angle of rotation ([1]; time 15.5 min): −2.29 °
angle of rotation ([1]; time 16 min): −2 °
angle of rotation ([1]; time 16.5 min): −1.72 °
angle of rotation ([1]; time 17 min): −1.47 °
angle of rotation ([1]; time 17.5 min): −1.23 °
angle of rotation ([1]; time 18 min): −1 °
angle of rotation ([1]; time 18.5 min): −0.8 °
angle of rotation ([1]; time 19 min): −0.6 °
angle of rotation ([1]; time 19.5 min): −0.41 °
angle of rotation ([1]; time 20 min): −0.24 °
angle of rotation ([1]; time 20.5 min): −0.08 °
angle of rotation ([1]; time 21 min): 0.07 °
angle of rotation ([1]; time 21.5 min): 0.22 °
angle of rotation ([1]; time 22 min): 0.35 °
angle of rotation ([1]; time 22.5 min): 0.47 °
angle of rotation ([1]; time 23 min): 0.59 °
angle of rotation ([1]; time 23.5 min): 0.7 °
angle of rotation ([1]; time 24 min): 0.8 °
angle of rotation ([1]; time 24.5 min): 0.9 °
angle of rotation ([1]; time 25 min): 0.99 °
angle of rotation ([1]; time 25.5 min): 1.07 °
angle of rotation ([1]; time 26 min): 1.15 °
angle of rotation ([1]; time 26.5 min): 1.22 °
angle of rotation ([1]; time 27 min): 1.29 °
angle of rotation ([1]; time 27.5 min): 1.36 °
angle of rotation ([1]; time 28 min): 1.42 °
angle of rotation ([1]; time 28.5 min): 1.48 °
angle of rotation ([1]; time 29 min): 1.53 °
angle of rotation ([1]; time 29.5 min): 1.58 °
angle of rotation ([1]; time 30 min): 1.63 °
angle of rotation ([1]; time 35 min): 1.96 °
angle of rotation ([1]; time 40 min): 2.13 °
angle of rotation ([1]; time 45 min): 2.22 °
angle of rotation ([1]; time 50 min): 2.26 °
angle of rotation ([1]; time 55 min): 2.29 °
angle of rotation ([1]; time 60 min): 2.30 °

Structure (SMILES): O=C(CO)C(O)C(O)C(O)CO [allulose, D-allulose]
rate constant k of development of open-chain carbonyl-form in solution (first-order) ([2]; absorbance at 280 nm after dissolution): 4.44 ms^−1
equilibrium content of carbonyl-form ([2]; in solution): about 0.2%
time until the angle of rotation remains constant (chiral species in solution equilibrated) ([1]; 26.05 g crystalline allulose in 74.30 g water, DS 26 wt.-%, FIG. 1): more than 1 hour
solubility ([3]; 25° C.): 291 g per 100 g water
solubility in water ([3]; 25° C.): 291 g in 100 g of water
solubility in water expressed as mass fraction ([3]; 25° C.): 74%
solubility in water ([3]; 50° C.): 489 g in 100 g of water
solubility in water expressed as mass fraction ([3]; 50° C.): 83%
supersaturation [4, 6]: −27%
undercooling [4, 6]: −54K
supersaturation [4, 7]: −19%
undercooling [4, 7]: −94K
percent composition of anomeric forms: keto form ([5]; in D2O at 303.15 K): 0.2%
percent composition of anomeric forms: α-furanose ([5]; in D2O at 303.15 K): 39%
percent composition of anomeric forms: α-pyranose ([5]; in D2O at 303.15 K): 22%
percent composition of anomeric forms: β-furanose ([5]; in D2O at 303.15 K): 15%
percent composition of anomeric forms: β-pyranose ([5]; in D2O at 303.15 K): 24%
equilibrium composition: α-furanose [5, 8]: 37%
equilibrium composition: α-pyranose [5, 8]: ~26%
equilibrium composition: β-furanose [5, 8]: ~11%
equilibrium composition: β-pyranose [5, 8]: ~26%

supersaturation [4, 9]: 35%
undercooling [4, 9]: 62K
Structure (SMILES): OC[C@H]1O[C@H](OC[C@H]2OC(O)(CO)[C@@H](O)[C@@H]2O)[C@H](O)[C@@H](O)[C@@H]1O (stereo partly drawn) [isomaltulose]

Structure (SMILES): OC[C@@]1(O)OC[C@@H](O)[C@@H](O)[C@H]1O [β-D-psicopyranose]
Mutarotation [α] ([2]; in water): about −85 deg dm^−1 cm^3

supersaturation [4, 10]: −14%
undercooling [4, 10]: 37K
Structure (SMILES): OC[C@H]1O[C@@](CO)(O[C@H]2O[C@H](CO)[C@@H](O)[C@H](O)[C@H]2O)[C@@H](O)[C@@H]1O [sucrose]

From patent US20230312631A1, “EXTRUSION PROCESS FOR THE PREPARATION OF A SOLID ALLULOSE COMPOSITION” (SAVANNA INGREDIENTS GMBH, priority 2020, published 2023)
